This note sets out measurements from patent US6596719B1 (Actelio Pharmaceuticals Ltd., priority 1999, dated 2003).

The IC50 is the concentration that inhibits the measured activity by half.

The target in test [1] is T1, human recombinant ETB receptors (Homo sapiens, UniProt P24530).
T1 construct: expressed in transfected cells; host or cells: CHO cells (microsomal membranes)
T1 sequence (P24530 27-442): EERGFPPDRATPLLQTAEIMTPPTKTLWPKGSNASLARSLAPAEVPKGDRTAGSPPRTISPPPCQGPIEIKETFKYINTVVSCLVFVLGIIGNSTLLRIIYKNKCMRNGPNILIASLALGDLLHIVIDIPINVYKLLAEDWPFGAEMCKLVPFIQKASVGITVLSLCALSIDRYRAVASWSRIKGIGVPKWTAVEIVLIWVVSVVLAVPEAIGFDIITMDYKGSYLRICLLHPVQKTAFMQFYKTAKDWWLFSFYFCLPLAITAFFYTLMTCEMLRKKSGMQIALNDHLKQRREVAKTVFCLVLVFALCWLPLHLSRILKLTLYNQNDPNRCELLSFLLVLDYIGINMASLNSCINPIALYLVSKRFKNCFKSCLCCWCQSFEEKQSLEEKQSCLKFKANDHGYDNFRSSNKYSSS
The experiment in a line: Inhibition of endothelin binding to membranes from CHO cells carrying human ET receptors (ETB). How it is done:
1) Inhibition of Endothelin Binding to Membranes from CHO Cells Carrying Human ET Receptors:
For competition binding studies, membranes of CHO cells expressing human recombinant ETA or ETB receptors were used. Microsomal membranes from recombinant CHO cells were prepared and the binding assay made as previously described (Breu V., et al, FEBS Lett 1993; 334:210).
The assay was performed in 200 uL 50 mM Tris/HCl buffer, pH 7.4, including 25 mM MnCl2, 1 mM EDTA and 0.5% (w/v) BSA in polypropylene microtiter plates. […]. […] After two h, the membranes were filtered on, filterplates containing GF/C filters (Unifilterplates from Canberra Packard S. A. Zürich, Switzerland). To each well, 50 uL of scintillation cocktail was added (MicroScint 20, Canberra Packard S. A. Zürich, Switzerland) and the filter plates counted in a microplate counter (TopCount, Canberra Packard S. A. Zürich, Switzerland).
All the test compounds were dissolved, diluted and added in DMSO. […] […].

Test [2] addresses T2, human recombinant ETA receptors (Homo sapiens, UniProt P25101).
T2 construct: expressed in transfected cells; host or cells: CHO cells (microsomal membranes)
T2 sequence (P25101 21-427): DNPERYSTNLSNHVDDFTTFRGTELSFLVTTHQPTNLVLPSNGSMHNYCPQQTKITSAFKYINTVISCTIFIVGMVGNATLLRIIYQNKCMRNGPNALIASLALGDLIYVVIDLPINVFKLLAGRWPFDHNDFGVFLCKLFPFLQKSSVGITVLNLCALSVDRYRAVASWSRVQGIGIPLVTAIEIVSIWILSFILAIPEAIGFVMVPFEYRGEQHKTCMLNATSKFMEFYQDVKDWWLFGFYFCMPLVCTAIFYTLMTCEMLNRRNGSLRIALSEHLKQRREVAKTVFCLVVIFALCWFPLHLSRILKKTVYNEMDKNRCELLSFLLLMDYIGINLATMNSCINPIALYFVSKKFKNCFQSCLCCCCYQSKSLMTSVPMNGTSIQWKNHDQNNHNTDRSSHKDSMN
Kind of test: Inhibition of endothelin binding to membranes from CHO cells carrying human ET receptors (ETA).

The mark [3] stands for this setting: membranes of CHO cells expressing human recombinant ETB receptors, 8 pM [125I]ET-1, 2 h at 20° C.
Setting [4] is: membranes of CHO cells expressing human recombinant ETA receptors, 8 pM [125I]ET-1, 2 h at 20° C.

Like-named read-outs stand apart in the source and are kept apart here.

With “5-isopropyl-N-[6-(2-(1-propanesulfonylamino)-ethoxy)-5-(o-methoxyphenoxy)-2-(2-pyridyl)-4-pyrimidinyl]-2-pyridine sulfonamide [Example 72]”, the IC50 in test [1] (setting [3]) is 279 nM; in test [2] (setting [4]), 153 nM.
`CCS(=O)(=O)NCCCOc1nc(C2CC2)nc(NS(=O)(=O)c2ccc(C(C)C)cn2)c1Oc1ccccc1OC` [Example 91, 5-i.-propyl-N-[6-(3-(ethanesulfonylamino)-propoxy)-5-(o-methoxyphenoxy)-2-cyclopropyl-4-pyrimidinyl]-pyridine-2-sulfonamide]: the concentration for half-maximal inhibition (IC50) in test [1] (setting [3]) amounted to 103 nM; in test [2] (setting [4]) it was 45.5 nM.
For `COc1ccccc1Oc1c(NS(=O)(=O)c2ccc(C(C)C)cn2)nc(C2CC2)nc1OCCNS(=O)(=O)c1ccc(C)cc1` [Example 39, 5-i-propyl-N-[6-(2-(4-methylbenzene)-sulfonylamino-ethoxy)-5-(o-methoxyphenoxy)-2-cyclopropyl-pyrimidin-4-yl]-pyridine-2-sulfonamide], in that order: 81 nM and 1050 nM.
Turning to `CCS(=O)(=O)NCCCOc1nc(C2CC2)nc(NS(=O)(=O)c2ccc(C(C)(C)C)cc2)c1Oc1ccccc1OC` [Example 79], the results for the IC50 in test [1] and in test [2] were above 10000 nM and 37 nM, respectively.
For `COc1ccccc1Oc1c(NS(=O)(=O)c2ccc(C(C)(C)C)cc2)nc(C)nc1OCCNS(=O)(=O)c1cccs1` [Example 62, 4-tert.-butyl-N-[6-(2-(2-thiophenesulfonylamino)-ethoxy)-5-(o-methoxyphenoxy)-2-methyl-4-pyrimidinyl]-benzene sulfonamide], in that order: 163 nM and 443 nM.
Turning to “5-i-propyl-N-[6-(2-ethanesulfonylamino-ethoxy)-5-(o-methoxyphenoxy)-2-cyclopropyl-pyrimidin-4-yl]-pyridine-2-sulfonamide [Example 38]”, the IC50 in test [1] (setting [3]) came out at 84 nM; in test [2] (setting [4]), 80 nM.
With `COc1ccccc1Oc1c(NS(=O)(=O)c2ccc(C(C)C)cn2)nc(-c2ccncc2)nc1OCCNS(=O)(=O)c1cccs1` [Example 71], the 50% inhibitory concentration (IC50) was 231 nM in test [1] and 508 nM in test [2].
For `CCS(=O)(=O)NCCOc1nc(C2CC2)nc(NS(=O)(=O)c2ccc(C(C)C)cn2)c1Oc1ccccc1OC` [Example 43, 5-i-propyl-N-[6-(2-ethanesulfonylamino-ethoxy)-5-(o-methoxyphenoxy)-2-cyclopropyl-pyrimidin-4-yl]-pyridine-2-sulfonamide], in that order: 376 nM and 75 nM.
As for “p-methyl-N-[6-(ethoxy-2-benzenesulfonamido)-5-(o-methoxyphenoxy)-2-(4-pyridyl)-4-pyrimidinyl]benzene-sulfonamide [Example 2]”, the IC50 in test [1] (setting [3]) worked out at 1790 nM; in test [2] (setting [4]), 1960 nM.
Consider `COc1ccccc1Oc1c(NS(=O)(=O)c2ccc(C(C)C)cn2)nc(-c2ncccn2)nc1OCCNS(=O)(=O)c1cccs1` [Example 68, 5-isopropyl-N-[6-(2-(2-thiophenesulfonylamino)-ethoxy)-5-(o-methoxyphenoxy)-2-(2-pyrimidinyl)-4-pyrimidinyl]-2-pyridine sulfonamide], for which the IC50 in test [1] stood at 169 nM; in test [2] it was 477 nM.
As for `CCS(=O)(=O)NCCOc1nc(N2CCN(C)CC2)nc(NS(=O)(=O)c2ccc(C(C)(C)C)cc2)c1Oc1ccccc1OC` [Example 82, 4-tert.-butyl-N-[6-(2-ethanesulfonylamino-ethoxy)-2-(N-(N′-methyl)-piperazinyl)-5-(o-methoxyphenoxy)-pyrimidin-4-yl]-benzene-sulfonamide], the 50% inhibitory concentration (IC50) in test [1] stood at 3510 nM; in test [2], 311 nM.
Turning to `COc1ccccc1Oc1c(NS(=O)(=O)c2ccc(C(C)(C)C)cc2)nc(-c2ncccn2)nc1OCCNS(=O)(=O)C(F)(F)F` [Example 5, p-tert.-butyl-N-[6-(ethoxy-2-trifluoromethanesulfonamido)-5-(o-methoxyphenoxy)-2-(2-pyrimidinyl)-4-pyrimidinyl]benzene-sulfonamide], the IC50 in test [1] amounted to 356 nM; in test [2] it was 5560 nM.
The corresponding values for `CCCCS(=O)(=O)NCCOc1nc(-c2ncccn2)nc(NS(=O)(=O)c2ccc(C(C)(C)C)cc2)c1Oc1ccccc1OC` [Example 17, p-tert.-butyl-N-[6-(ethoxy-2-(1-butanesulfonamido))-5-(o-methoxyphenoxy)-2-(2-pyrimidinyl)-4-pyrimidinyl]benzene-sulfonamide] are 117 nM and 1100 nM.
For the compound `CCS(=O)(=O)NCCOc1nc(-c2ncccn2)nc(NS(=O)(=O)c2ccc(C(C)(C)C)cc2)c1Oc1ccccc1OC` [Example 8, p-tert.-butyl-N-[6-(ethoxy-2-ethanesulfonamido)-5-(o-methoxyphenoxy)-2-(2-pyrimidinyl)-4-pyrimidinyl]benzene-sulfonamide], the IC50 in test [1] (setting [3]) turned out to be 130 nM; in test [2] (setting [4]), 160 nM.
For `COc1ccccc1Oc1c(NS(=O)(=O)c2ccc(C(C)(C)C)cc2)nc(-c2ncccn2)nc1OCCNS(=O)(=O)c1ccc(C)cc1` [Example 6, p-tert.-butyl-N-[6-(ethoxy-2-p-toluenesulfonamido)-5-(o-methoxyphenoxy)-2-(2-pyrimidinyl)-4-pyrimidinyl]benzene-sulfonamide], in that order: 420 nM and 8300 nM.
For `CCS(=O)(=O)NCCOc1nc(C2CC2)nc(NS(=O)(=O)c2ccc(C(C)(C)C)cc2)c1Oc1ccccc1OC` [Example 44, 4-tert.-butyl-N-[6-(2-ethanesulfonylamino-ethoxy)-5-(o-methoxyphenoxy)-2-cyclopropyl-pyrimidin-4-yl]-benzene-sulfonamide], in that order: 323 nM and 119 nM.
In the case of `COc1ccccc1Oc1c(NS(=O)(=O)c2ccc(C(C)C)cn2)nc(C)nc1OCCNS(C)(=O)=O` [Example 23, 5-i.-propyl-N-[6-(ethoxy-2-methanesulfonamido)-5-(o-methoxyphenoxy)-2-methyl-4-pyrimidinyl]pyridine-2-sulfonamide], the IC50 in test [1] turned out to be 52.7 nM; in test [2], 76.1 nM.
The corresponding values for `COc1ccccc1Oc1c(NS(=O)(=O)c2ccc(C)cn2)nc(-c2ccncc2)nc1OCCNS(C)(=O)=O` [Example 78, 5-methyl-N-[6-(2-(methanesulfonylamino)-ethoxy)-5-(o-methoxyphenoxy)-2-(4-pyridyl)-4-pyrimidinyl]-2-pyridine sulfonamide] are 5460 nM and 627 nM.
The corresponding values for `CCCS(=O)(=O)NCCOc1ncnc(NS(=O)(=O)c2ccc(C(C)(C)C)cc2)c1Oc1ccccc1OC` [Example 30, 4-tert.-butyl-N-{6-[2-(1-propanesulfonyl-amino)-ethoxy]-5-(o-methoxy-phenoxy)-pyrimidin-4-yl}-benzenesulfonamide] are 288 nM and 484 nM.
Take `COc1ccccc1Oc1c(NS(=O)(=O)c2ccc(C(C)(C)C)cc2)ncnc1OCCNS(=O)(=O)c1ccc(Br)cc1` [Example 27, 4-tert.-butyl-N-{6-[2-(4-bromobenzenesulfonyl-amino)-ethoxy]-5-(o-methoxy-phenoxy)-pyrimidin-4-yl}-benzenesulfonamide]: the IC50 in test [1] was determined as 995 nM; in test [2], 3630 nM.
In the case of `COc1ccccc1Oc1c(NS(=O)(=O)c2ccc(C)cn2)nc(N2CCOCC2)nc1OCCNS(=O)(=O)c1cccs1` [Example 58, 5-methyl-N-[6-(2-(thiophene-2-sulfonylamino)-ethoxy)-5-(o-methoxyphenoxy)-2-(N-morpholino)-4-pyrimidinyl]-2-pyridine sulfonamide], in test [1] (setting [3]), the IC50 stood at 447 nM.
For the compound `COc1ccccc1Oc1c(NS(=O)(=O)c2ccc(C(C)(C)C)cc2)nc(-c2ncccn2)nc1OCCCNS(=O)(=O)c1cccs1` [Example 90, 4-tert.-butyl-N-[6-(3-(2-thiophenesulfonylamino)-propoxy)-5-(o-methoxyphenoxy)-2-pyrimidinyl-4-pyrimidinyl]-benzene-sulfonamide], the IC50 in test [1] was 4.1 nM.
